Test results from patent publication US6767708B1, “Stabilized aqueous steroid immunoassay standards” (Abbott Laboratories, priority 1994, dated 2004).

Assay: Stability of progesterone in charcoal stripped human serum stressed at 37° C. (percent loss by IMx Progesterone immunoassay)
Type: physicochemical
Conditions: for Reduction in % loss of progesterone over time by addition of chelator compared to no added reagent: days 0, 3, 8, 15 and 29, FIG. 1; for Percent loss of progesterone: 5 ng/mL progesterone in charcoal stripped human serum, after 29 days, relative to frozen aliquot
Procedure: Fifteen microliters (15 μL) of a serum sample were mixed with 80 μL of progesterone sample buffer, 80 μL of an anti-progesterone antibody coated microparticle suspension and 75 μL of IMx® Buffer. The reaction mixture was incubated for 20.8 minutes at 37° C. Progesterone sample buffer was an aqueous pH 2.8 solution of 2.25 M glycine, 0.5 μg/mL of 5-∝-dihydrotestosterone, 0.2% (w/v) saponin, 0.1 M sodium chloride and 0.1% methyl isothiazolinone (available from Rohm and Haas, Philadelphia, Pa.). The anti-progesterone antibody (available from University of Surry, Australia) coated microparticle suspension contained 0.001% solids (microparticles available from Seradyne, Indianapolis, Ind.) suspended in a buffer that was a pH 6.5 aqueous solution of 0.5 M morpholinoethanesulphonic acid (MES), 0.1 M sodium chloride, 10% sucrose, 2% bovine serum albumin (available from Intergen, Hawthorne, N.Y.), 0.1 mg/mL sheep IgG (50% ammonium sulfate cut of sheep serum obtained from Irvine Scientific, Santa Ana, Calif.) and 0.2% sodium azide.
One hundred seventy five microliters (175 μL) of the reaction mixture were transferred to the fiber matrix of an IMx® disposable cartridge. The microparticles were then washed with IMx® Buffer. Sixty microliters (60 μL) of 17-hydroxyprogesterone-3-(O-carboxymethyl)oxime alkaline phosphatase conjugate solution were added to the matrix, the reaction was incubated for 8 seconds at 37° C., and then washed again with IMx® Buffer. The conjugate solution contained 17-hydroxyprogesterone (available from Steraloids, Wilton, N.H.) coupled to alkaline phosphatase (available from Boehringer Mannheim, Germany) by means of the EDAC coupling procedure as described in U.S. Pat. No. 5,342,760. The conjugate solution was a pH 7.4 aqueous solution of 50 mM tris, 100 mM sodium chloride, 10 mM magnesium chloride, 0.1 mM zinc chloride, 0.5% casein (available from Sigma Chemical, St. Louis, Mo.) and 0.1% sodium azide containing sufficient conjugate to give a certain signal strength when utilized in an assay of sample free of analyte.
The addition of 4-methylumbelliferone phosphate and quantification of the rate of 4 methylumbelliferone formation was as described in Example 1. Using calibrators containing 0, 1, 4, 10, 20, and 40ng/mL of progesterone a standard curve was constructed.
Test samples were incubated at 37° C. and observed over a period of days or weeks.
Charcoal stripped human serum as prepared in Example 3 (non-alkaline shocked) (10 mL) was aliquoted into glass scintillation vials and various metal chelators were added to the following final concentrations:
Samples were incubated on a rocker for 12 min. at room temperature and then spiked to 5 ng/mL with 10 μg/mL progesterone (available from Sigma Chemical, Saint Louis, Mo.) prepared in an ethanol stock solution. Samples were assayed for baseline concentrations of progesterone following an 8 min. incubation on a rocker at room temperature. Four 1.0 mL aliquots of each composition were placed in TDx® microcentrifuge tubes (available from Abbott Laboratories, Abbott Park, Ill.) and stored frozen −20° C. The scintillation vials were incubated at 37° C. On the days indicated, aliquots were thawed and tested with the corresponding aliquots drawn from the vials stored at 37° C. to assess percent loss.
Percent loss (% loss) is an absolute determination of the loss of progesterone in the stressed sample relative to the frozen aliquot. […]

Row | Percent loss of progesterone (10 mM DETP) | Percent loss of progesterone (no reagent added) | SMILES | Reduction in % loss of progesterone (ranking of chelators) (10 mM DETP, charcoal stripped human serum) | Reduction in % loss of progesterone over time by addition of chelator compared to no added reagent (charcoal stripped human serum)
1 | – | – | O=C(O)CN(CCN(CC(=O)O)CC(=O)O)CCN(CC(=O)O)CC(=O)O [DETP, diethylenetriaminepentaacetic acid] | most effective | reduction in % loss
2 | – | – | O=C(O)CN(CCN(CC(=O)O)CC(=O)O)CC(=O)O [EDTA, ethylenediaminetetraacetic acid] | – | reduction in % loss
3 | eliminated | ~80% | CC(=O)[C@H]1CC[C@H]2[C@@H]3CCC4=CC(=O)CC[C@]4(C)[C@H]3CC[C@]12C [progesterone] | – | –
